Assay results from PMC11170759, “Advancing Parkinson’s Disease Diagnostics: The Potential of Arylpyrazolethiazole Derivatives for Imaging α-Synuclein Aggregates” (ACS Omega, 2024).
Several values for one entry are separate records, joined by “and”; a condition that tells them apart may be missing. Equal values may be shown once. Each block holds one molecule with its values, some of them ahead of it.

Columns and labels:
α-synuclein aggregates = target: α-synuclein aggregates; design: method as in PMID 34577548; details: literature ligands of Figure 1; read-out: Ki α-syn; cited from earlier work
Aβ1-42 = target: Aβ1-42; design: method as in PMID 34577548; details: literature ligands of Figure 1; cited from earlier work
[1] = target: human recombinant α-syn fibrils (Homo sapiens, UniProt P37840); assay: In vitro competition binding assay against [3H]MODAG-001 on α-syn fibrils; details: for Ki: competition against 1 nM [3H]MODAG-001, α-syn fibrils 50 nM, mean Ki ± SEM; for selectivity for α-syn over Aβ: ratio of Ki Aβ to Ki α-syn fibrils; for binding affinity to α-syn fibrils (in words): competition against [3H]MODAG-001
Procedure: (§1) The APT library underwent in vitro testing to evaluate its binding affinity to human recombinant α-syn fibrils. Promising compounds were further tested on Aβ fibrils. […] Since the DPP and APT class of compounds share similarities, the APT library was tested in a competition binding assay with [^3H]MODAG-001 to determine its relative binding affinity and inhibition constant (Ki). The binding assay measured the displacement of the radioligand by increasing concentrations of competitor compounds, using fixed concentrations of fibrils and radioligand.
(§2) The dissociation constant (Kd) values of [^3H]MODAG–001 for human recombinant α-syn and synthetic human Aβ1–42 fibrils have previously been determined using saturation binding assays.[30] To determine the relative binding affinity (inhibition constant, Ki) of test compounds, competition binding assays of [^3H]MODAG-001 were performed. […] Human recombinant α-syn (50 nM) and synthetic human Aβ1–42 fibrils (1 μM) diluted in PBS (Gibco DPBS, no calcium, no magnesium, Thermo Fisher Scientific, Waltham, MA, USA) were incubated with increasing concentrations of test compounds (5 pM to 10 μM) against 1 nM [^3H]MODAG–001 in 30 mM Tris–HCl, 0.1% bovine serum albumin, and 0.05% Tween20 in 96-well micro test low-binding plates (ratiolab GmbH, Dreieich, Germany) to a total volume of 200 μL/well. Plates were incubated on a shaker (MaxQ 6000, Thermo Fisher Scientific Inc., Marietta, OH, USA) at 50 rpm for 2 h at 37 °C, covered by removable sealing tapes (PerkinElmer, Waltham, MA, USA). Vacuum filtration and read-out were performed as previously reported (Kuebler, Buss et al. 2021). Briefly, a glass fiber Filtermat B (PerkinElmer, Waltham, MA, USA) incubated with 0.5% polyethylenimine (PEI; Sigma-Aldrich Chemie GmbH, Taufkirchen, Germany) for 30 min at 4 °C before filter harvesting was used with a FilterMate Harvester (PerkinElmer, Waltham, MA, USA). Melt-on scintillator sheets (MeltiLex B/HS, PerkinElmer, Waltham, MA, USA) were molten onto dried filters. Accumulation of tritium was counted in a liquid scintillation Wallac MicroBeta TriLux counter (PerkinElmer, Waltham, MA, USA) at 2 min per well. Radioactivity in counts per minute for each concentration of the test compound was normalized to the radioactivity obtained in the absence of the test compound for conversion to percentage binding of the reference tracer. The resulting values were plotted against increasing concentrations of the test compounds. Data points were fitted using nonlinear regression analysis in GraphPad Prism (GraphPad Software, Inc., Version 8.4.0, La Jolla, CA, USA). The binding curve for [^3H]MODAG-001 saturation assay on α-syn fibrils is reported in the Supporting Information (Figure S6).

[2] = target: T1, synthetic human Aβ1–42 fibrils (Homo sapiens, UniProt P05067); assay: In vitro competition binding assay against [3H]MODAG-001 on Aβ1–42 fibrils; details: for Ki: competition against 1 nM [3H]MODAG-001, Aβ1–42 fibrils 1 μM, mean Ki ± SEM
T1 construct: Synthetic lyophilized human Aβ1–42 peptide; purchased EMC Microcollections GmbH (Tuebingen, Germany); host or cells: chemical synthesis
T1 sequence (P05067 672-713): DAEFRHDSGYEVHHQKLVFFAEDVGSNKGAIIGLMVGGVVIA
Procedure: as §1
α-Syn fibrils were generated as the previously reported method.[30] The generation of Aβ1–42 fibril was adapted from Bagchi et al. and previously described by Kuebler et al.[16],[31] Synthetic lyophilized human Aβ1–42 peptide with >90% purity purchased from EMC Microcollections GmbH (Tuebingen, Germany) was dissolved in dimethyl sulfoxide (DMSO; 5 mg in 221.5 μL). Deionized water (4.1 mL) and 1 M Tris–HCl (111 μL, pH 7.6) were added to obtain a final monomeric concentration of 250 μM. Aggregation was induced by incubating the monomers in Eppendorf Thermomixer at 37 °C with shaking at 800 rpm for 72 h. Generated fibrils were sonicated for 3 min in a water bath (Elmasonic S 60H, Elma Schmidbauer GmbH, Singen, Germany). The final products were aliquoted, frozen on dry ice, and stored at −80 °C until use. Aβ1–42 fibril quality was evaluated via thioflavin (ThT) fluorescence and radioligand saturation assay with [^3H]PiB and [^3H]MODAG-001.
as §2

[3] = LogD determination (octanol/PBS); format: physicochemical; details: n = 3
Procedure: The logD was calculated experimentally by adding [^11C]APT-13 (1.5 MBq) to a 1.5 mL Eppendorf vial containing 500 μL of octanol (OCT) and 500 μL of PBS. The vial was vigorously vortexed and then, to achieve effective phase separation, centrifuged. Aliquots of 350 μL were collected from both OCT and PBS phases. The OCT sample was further washed with 350 μL of PBS; the phases mixture was shaken and centrifuged, and 200 μL of both phases were taken into new reaction tubes. The amount of radioactivity in each sample was quantified using a γ-counter. The log OCT/PBS values were calculated from the mean of n = 3 determinations (Table S3).
Table S3. Results from LogD determination assay.
C-11 CPM Description Mean value Mean value * dil

Serum stability assay = format: in vitro ADME; details: 37 °C, within 90 min
Procedure: Human serum was obtained from human male AB plasma, USA origin, sterile-filtered (Sigma-Aldrich, St. Louis, MO, USA).
The tracer formulation was mixed with an equal volume of human serum (250 μL) and incubated into a thermo-shaker at 37 °C, 300 rpm. At different time points (0, 15, 30, 60, and 90 min), 70 μL samples were drawn and mixed with ice-cold acetonitrile (1:1 dilution) and quickly vortexed. The dilute sample was incubated for 2 min on ice and centrifuged (MiniSpin centrifuge, Eppendorf) for 2 min at 13,400 rpm. An aliquot of the supernatant (120 μL) was analyzed by analytical radio-HPLC on a Luna C18(2), 5 μm, 250 × 4.6 mm column with 35% ACN in 0.1% aqueous TFA as mobile phase and at a flow rate of 1.5 mL/min in 10 min. The radiolabeled product was eluted at a retention time of 5.9 ± 0.2 min (Figure S5).

[4] = In vivo PET/MR imaging in healthy wild-type mice; design: species or system mice (C57BL/6J); details: iv
Procedure: To assess the pharmacokinetic profile of [^11C]APT-13 in vivo, wild-type mice (n = 3) were iv injected, and the organ distribution was assessed over 60 min with dynamic PET and anatomical MR imaging (Figure 7A). […] Tracer clearance was largest through the liver (SUV ≈ 5), and high uptake was also observed in the heart (SUV ≈ 6) and lungs (SUV ≈ 5). Uptake with fast clearance was also observed in the kidney, indicating renal excretion within the first few minutes (Figure 7C).
To evaluate the pharmacokinetics of [^11C]APT-13, PET and subsequent MRI scans were performed in healthy mice (female, 21 weeks old, C57BL/6J) to determine brain uptake and washout as well as organ uptake of the liver, lungs, heart, kidneys, and brain. Scans were performed in a small animal Inveon PET scanner (Siemens Healthcare, Erlangen, Germany) and a 7T small animal MRI scanner (Bruker BioSpin GmbH, Ettlingen, Germany). The mice (n = 3) were anesthetized with 1.5% isoflurane evaporated in 100% oxygen at a flow of 0.8 L/min, and a catheter was placed in the tail vein. The body temperature was kept at 37 °C by using a feedback temperature control unit for a heat pump that was connected to the PET bed. Five seconds after the start of the PET acquisition, 15.2 ± 0.5 MBq (410 ± 13 μCi) of [^11C]APT-13 was injected intravenously. PET data were acquired in a dynamic scan for 60 min plus an extra 13 min of transmission measurement with a ^57Co-source for attenuation correction. Subsequently, mice were placed in the same bed position in the MRI, and an anatomical scan was performed using a Turbo RARE T2 sequence. For analysis, the 60 min of acquired PET data were divided into 39-time frames (12 × 5, 6 × 10, 6 × 30, 5 × 60, and 10 × 300 s) and reconstructed using the OSEM3D reconstruction algorithm. The PET scans were coregistered to the whole-body MRI scan using PMOD software (version 4.203; PMOD Technologies, Zürich, Switzerland), and the volume of interest (VOI) of the different organs (liver, lungs, heart, kidney, and brain) were hand-drawn according to the anatomical localization. VOI were selected from the mouse brain atlas in PMOD, time activity curves were extracted, and SUV were calculated by normalizing to the injected activity and animal weight.

α-syn fibrils = target: α-syn fibrils; design: method as in PMID 33369690; details: saturation binding, recombinant fibrils; cited from earlier work
Aβ1-42 fibrils = target: Aβ1-42 fibrils; design: method as in PMID 33369690; details: saturation binding, recombinant fibrils; read-out: Kd Aβ1-42 (reported); cited from earlier work

SMILES: O=C(/C=C/C=C/C=C/c1ccc([N+](=O)[O-])cc1)c1ccc(OCC(O)CF)cc1 (centres unmarked) [FHCL-2]
- Ki (α-synuclein aggregates): 3.4 ± 0.1 nM
- Ki Aβ1-42 (Aβ1-42): no competition

SMILES: CNc1ccc(-c2cc(-c3nccs3)[nH]n2)cc1 [APT-7, N-Methyl-4-(5-(thiazol-2-yl)-1H-pyrazol-3-yl)aniline]
- Ki [1]: 45 nM and 44.5 nM
- selectivity for α-syn over Aβ [1]: > 20 fold
- Ki [2]: 381 ± 217 nM

SMILES: COc1ccc(/C=C/c2cc(-c3nccs3)on2)cc1 [11b]
- Ki (α-synuclein aggregates): 18.5 ± 9.2 nM
- Ki (Aβ1-42): 91.5 ± 58.7 nM

SMILES: [11CH3]Nc1ccc(-c2cc(-c3nc(Br)cs3)[nH]n2)cc1 [[^11C]APT-13]
- logD [3]: 3.16
- stability in human serum (Serum stability assay): did not show evidence of degradation
- SUV heart ([4]; n = 3): ≈ 6
- SUV liver ([4]; n = 3): ≈ 5
- SUV lungs ([4]; n = 3): ≈ 5
- peak SUV in brain ([4]; n = 3, dynamic PET 60 min): 1.94 ± 0.29

SMILES: CNc1ccc(/C=C/C(=O)c2nc(Br)cs2)cc1 [APT-12, (E)-1-(4-Bromothiazol-2-yl)-3-(4-(methylamino)phenyl)prop-2-en-1-one]
- Ki [1]: 198 ± 142 nM
- Ki [2]: 587 nM

SMILES: CN(C)c1ccc(-c2cc(-c3ccnc(Br)c3)[nH]n2)cc1 [MODAG-001]
- Kd (α-syn fibrils): 0.6 ± 0.1 nM
- Kd (Aβ1-42 fibrils): 20 ± 10 nM

SMILES: Fc1ccc(-c2csc(-c3nc(-c4cnc5c(c4)OCO5)cs3)n2)cn1 [d8]
- Ki (α-synuclein aggregates): 0.1 nM
- Ki (Aβ1-42): 386 nM

SMILES: Brc1cnc(-c2cc(-c3ccc4c(c3)OCO4)n[nH]2)s1 [APT-9, 2-(3-(Benzo[d][1,3]dioxol-5-yl)-1H-pyrazol-5-yl)-5-bromothiazole]
- Ki [1]: 187 nM
- binding affinity to α-syn fibrils (in words) [1]: poor binding
- Ki [2]: 230 nM

SMILES: CNc1ccc(/C=C/C(=O)c2nccs2)cc1 [APT-11, (E)-3-(4-(Methylamino)phenyl)-1-(thiazol-2-yl)prop-2-en-1-one]
- Ki [1]: 1010 ± 34 nM
- Ki [2]: 377 nM

Results, then the molecule that gave them:

- Ki [1]: 818.4 ± 1.8 nM
SMILES: Fc1csc(-c2cc(-c3ccc4c(c3)OCO4)n[nH]2)n1 [APT-10, 2-(3-(Benzo[d][1,3]dioxol-5-yl)-1H-pyrazol-5-yl)-4-fluorothiazole]

- binding affinity to α-syn fibrils (in words) [1]: loss of competition
SMILES: Cn1nc(-c2ccc3c(c2)OCO3)cc1-c1nc(Br)cs1 [APT-14, 2-(3-(Benzo[d][1,3]dioxol-5-yl)-1-methyl-1H-pyrazol-5-yl)-4-bromothiazole]

- Ki [1]: 50 nM and 49.7 nM
- selectivity for α-syn over Aβ [1]: > 8 fold
- Ki [2]: 1030 ± 562 nM
SMILES: Brc1csc(-c2cc(-c3ccc4c(c3)OCO4)n[nH]2)n1 [APT-4, 2-(3-(Benzo[d][1,3]dioxol-5-yl)-1H-pyrazol-5-yl)-4-bromothiazole]

- Ki [1]: 217 nM
SMILES: CN(C)c1ccc(-c2cc(-c3nccs3)[nH]n2)cc1 [APT-5, N,N-Dimethyl-4-(5-(thiazol-2-yl)-1H-pyrazol-3-yl)aniline]

- Ki [1]: 184 nM
- binding affinity to α-syn fibrils (in words) [1]: modest affinity
SMILES: FCCNc1ccc(-c2cc(-c3nccs3)[nH]n2)cc1 [APT-6, N-(2-Fluoroethyl)-4-(5-(thiazol-2-yl)-1H-pyrazol-3-yl)aniline]

- Ki [1]: 27.8 ± 9.7 nM
- Ki [2]: 92.6 ± 48.8 nM
SMILES: CNc1ccc(-c2cc(-c3nc(Br)cs3)[nH]n2)cc1 [APT-13, 4-(5-(4-Bromothiazol-2-yl)-1H-pyrazol-3-yl)-N-methylaniline]

- Ki [1]: > 14200 nM
SMILES: Cn1nc(-c2ccc3c(c2)OCO3)cc1-c1nccs1 [APT-8, 2-(3-(Benzo[d][1,3]dioxol-5-yl)-1-methyl-1H-pyrazol-5-yl)thiazole]

- Ki [1]: 145 ± 46 nM
- binding affinity to α-syn fibrils (in words) [1]: moderate affinity
- Ki [2]: 561 nM
- binding to Aβ fibrils (in words) ([2]; competition against [3H]MODAG-001): significantly lower binding
SMILES: c1csc(-c2cc(-c3ccc4c(c3)OCO4)n[nH]2)n1 [APT-1, 2-(3-(Benzo[d][1,3]dioxol-5-yl)-1H-pyrazol-5-yl)thiazole]

- Ki [1]: > 894 nM
SMILES: O=C(/C=C/c1ccc2c(c1)OCO2)c1nccs1 [APT-3, (E)-3-(Benzo[d][1,3]dioxol-5-yl)-1-(thiazol-2-yl)prop-2-en-1-one]

- Ki [1]: 134 nM
SMILES: c1coc(-c2cc(-c3ccc4c(c3)OCO4)n[nH]2)n1 [APT-2, 2-(3-(Benzo[d][1,3]dioxol-5-yl)-1H-pyrazol-5-yl)oxazole]
